From ChEMBL document CHEMBL1201862, “PubChem BioAssay data set” (2004)
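96-well plates; 48 h exposure; 5 concentrations. Endpoints by linear interpolation between flanking doses. Not reached: highest tested concentration assigned. GI50 marks 50% less growth.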 Calls of active or inactive are those of the source. Rule as the data show it: active = GI50 up to about 1.1 µM and inactive = higher.

Experiments:
Test in all cases: NCI tumour cell line growth inhibition, 48 h
Malme-3M = tested on: Malme-3M
RXF 393 = tested on: RXF 393
MCF7 = tested on: MCF7
HT-29 = tested on: HT-29
SK-MEL-28 = tested on: SK-MEL-28
HCT-116 = tested on: HCT-116
MOLT-4 = tested on: MOLT-4
SNB-19 = tested on: SNB-19
MDA-MB-231 = tested on: MDA-MB-231
TK-10 = tested on: TK-10
PC-3 = tested on: PC-3
OVCAR-3 = tested on: OVCAR-3
MDA-MB-435 = tested on: MDA-MB-435
HL-60 = tested on: HL-60
COLO 205 = tested on: COLO 205
SF-295 = tested on: SF-295
LOX IMVI = tested on: LOX IMVI
OVCAR-8 = tested on: OVCAR-8
SW-620 = tested on: SW-620
SNB-75 = tested on: SNB-75

Row | Compound | GI50 (Malme-3M) | GI50 (RXF 393) | GI50 (MCF7) | GI50 (HT-29) | GI50 (SK-MEL-28) | GI50 (HCT-116) | GI50 (MOLT-4) | GI50 (SNB-19) | GI50 (MDA-MB-231) | GI50 (TK-10) | GI50 (PC-3) | GI50 (OVCAR-3) | GI50 (MDA-MB-435) | GI50 (HL-60) | GI50 (COLO 205) | GI50 (SF-295) | GI50 (LOX IMVI) | GI50 (OVCAR-8) | GI50 (SW-620) | GI50 (SNB-75)
1 | CC(C)OC(=O)c1ccc(NCc2cc(O)ccc2O)cc1 | 2.16 µM (inactive) | 1.32 µM (inactive) | 1.66 µM (inactive) | 13.7 µM (inactive) | 8 µM (inactive) | 5.81 µM (inactive) | 1.39 µM (inactive) | 3.3 µM (inactive) | 2.2 µM (inactive) | 4.53 µM (inactive) | 1.8 µM (inactive) | 1.47 µM (inactive) | 2.06 µM (inactive) | 0.462 µM (active) | 3.06 µM (inactive) | 6.3 µM (inactive) | 3.4 µM (inactive) | 2.51 µM (inactive) | 4.86 µM (inactive) | 4.61 µM (inactive)
2 | CCOC(=O)c1ccc(/N=C/C=C(\Nc2ccc(C(=O)OCC)cc2)C23CC4CC(CC(C4)C2)C3)cc1 | > 100 µM (inactive) | 27 µM (inactive) | 43.9 µM (inactive) | 26.5 µM (inactive) | > 100 µM (inactive) | 56.5 µM (inactive) | < 0.01 µM (active) | > 100 µM (inactive) | > 100 µM (inactive) | 71.6 µM (inactive) | 51.1 µM (inactive) | > 100 µM (inactive) | 89.7 µM (inactive) | 3.27 µM (inactive) | 45 µM (inactive) | 52.1 µM (inactive) | 95.3 µM (inactive) | 44.3 µM (inactive) | 27.5 µM (inactive) | 65.6 µM (inactive)
3 | CCOC(=O)C(=O)C(/C(=N/N(C)C)C(=O)Nc1ccc(C)cc1C)c1nc2ccccc2nc1O (stereo not drawn) | > 100 µM (inactive) | > 100 µM (inactive) | > 100 µM (inactive) | > 100 µM (inactive) | > 100 µM (inactive) | > 100 µM (inactive) | > 100 µM (inactive) | > 100 µM (inactive) | > 100 µM (inactive) | > 100 µM (inactive) | > 100 µM (inactive) | > 100 µM (inactive) | > 100 µM (inactive) | > 100 µM (inactive) |  | > 100 µM (inactive) | > 100 µM (inactive) | > 100 µM (inactive) | > 100 µM (inactive) | > 100 µM (inactive)
4 | CCOC(=O)C(=CNc1ccc(N(C2=NCC(C)S2)c2ccc(F)c(Cl)c2)cc1)C(=O)OCC (stereo not drawn) | 20.8 µM (inactive) | 6.05 µM (inactive) | 12.8 µM (inactive) | 18.1 µM (inactive) | 18.7 µM (inactive) | 16 µM (inactive) | 19.1 µM (inactive) | 21.8 µM (inactive) | 14.5 µM (inactive) | 21.8 µM (inactive) | 22.4 µM (inactive) | 20.9 µM (inactive) | 24.1 µM (inactive) | 24.7 µM (inactive) | 17.8 µM (inactive) | 25.4 µM (inactive) | 16.8 µM (inactive) | 18.8 µM (inactive) | 20.8 µM (inactive) | 20.4 µM (inactive)
5 | c1csc(-c2ccc(-c3ccsc3)s2)c1 | > 100 µM (inactive) | > 87.9 µM (inactive) | > 100 µM (inactive) | > 100 µM (inactive) | > 100 µM (inactive) | > 100 µM (inactive) | > 100 µM (inactive) | > 100 µM (inactive) | > 100 µM (inactive) | > 100 µM (inactive) | 97.5 µM (inactive) |  | > 100 µM (inactive) | > 100 µM (inactive) | > 100 µM (inactive) | > 100 µM (inactive) | > 100 µM (inactive) | > 100 µM (inactive) | > 100 µM (inactive) | 57.4 µM (inactive)
6 | CS(=O)(=O)OCCN(CCOS(C)(=O)=O)c1ccc(/C=N/c2cccc(Cl)c2)cc1 | 12.4 µM (inactive) | 2.78 µM (inactive) | 10 µM (inactive) | 2.69 µM (inactive) | 10.4 µM (inactive) | 64.9 µM (inactive) | 0.286 µM (active) | 5.46 µM (inactive) | 11.5 µM (inactive) | 2.19 µM (inactive) | 24.5 µM (inactive) | 12.1 µM (inactive) | 12.2 µM (inactive) | 2.45 µM (inactive) | 0.811 µM (active) | 1.46 µM (inactive) | 1.13 µM (inactive) | 10 µM (inactive) | 12.8 µM (inactive) | 2.11 µM (inactive)
7 | CCC(C)N1CN(c2ccccc2)C2(CCN(CC3COc4ccccc4O3)CC2)C1=O (stereo not drawn) | 18.5 µM (inactive) | 20.9 µM (inactive) | 18.9 µM (inactive) | 13.1 µM (inactive) | 39.7 µM (inactive) | 15.9 µM (inactive) | 16.1 µM (inactive) | 23.7 µM (inactive) | > 100 µM (inactive) | 27.5 µM (inactive) | 26.6 µM (inactive) | 15.7 µM (inactive) | 19.2 µM (inactive) | 14.4 µM (inactive) | 17.7 µM (inactive) | 19 µM (inactive) | 23.4 µM (inactive) | 26.2 µM (inactive) | 22.3 µM (inactive) | 36.9 µM (inactive)
8 | COc1ccc(-c2cc(-c3ccccc3)c3c(n2)-c2ccccc2NC(=O)C3)cc1 | 17.4 µM (inactive) | 30.2 µM (inactive) | 39.4 µM (inactive) | 12.1 µM (inactive) | > 100 µM (inactive) | 25.5 µM (inactive) |  | 34.7 µM (inactive) | 25.4 µM (inactive) | 41.8 µM (inactive) | 28.3 µM (inactive) | 30.1 µM (inactive) | > 100 µM (inactive) | > 100 µM (inactive) | > 100 µM (inactive) | 47.5 µM (inactive) | 65.6 µM (inactive) | 9.66 µM (inactive) | > 100 µM (inactive) | 1.19 µM (inactive)
9 | Cc1nc(C)c(N2CCN([N+](=O)[O-])CC2)c(O)n1 | > 100 µM (inactive) | > 100 µM (inactive) | > 100 µM (inactive) | > 100 µM (inactive) | > 100 µM (inactive) | > 100 µM (inactive) | > 100 µM (inactive) | > 100 µM (inactive) | > 100 µM (inactive) | > 100 µM (inactive) | > 100 µM (inactive) | > 100 µM (inactive) | > 100 µM (inactive) | > 100 µM (inactive) | > 100 µM (inactive) | > 100 µM (inactive) | > 100 µM (inactive) | > 100 µM (inactive) | > 100 µM (inactive) | < 0.01 µM (active)
10 | O=c1[nH]cnc2c1ncn2[C@@H]1C[C@@H]1CO | > 100 µM (inactive) | > 100 µM (inactive) | > 100 µM (inactive) | > 100 µM (inactive) | > 100 µM (inactive) | > 100 µM (inactive) | > 100 µM (inactive) | > 100 µM (inactive) | > 100 µM (inactive) | > 100 µM (inactive) | > 100 µM (inactive) |  | > 100 µM (inactive) | > 100 µM (inactive) | > 100 µM (inactive) |  | > 100 µM (inactive) | > 100 µM (inactive) | > 100 µM (inactive) | > 100 µM (inactive)
11 | COC(=O)/C=C\C(C#N)(C#N)/N=C/c1ccsc1 | 1.51 µM (inactive) | 1.78 µM (inactive) | 1.88 µM (inactive) | 4.18 µM (inactive) | 2.83 µM (inactive) | 1.75 µM (inactive) | 1.16 µM (inactive) | 14.5 µM (inactive) | 5.73 µM (inactive) | 2.36 µM (inactive) | 11.6 µM (inactive) | 1.86 µM (inactive) | 5.4 µM (inactive) | 0.429 µM (active) | 1.37 µM (inactive) | 13.3 µM (inactive) | 2.24 µM (inactive) | 4.19 µM (inactive) | 1.28 µM (inactive) | 15.7 µM (inactive)
12 | Nc1ncnc2c1ncn2C1OC(COP(=O)(O)CP(=O)(O)O)C(O)C1O (stereo not drawn) | > 100 µM (inactive) | > 100 µM (inactive) | > 100 µM (inactive) | > 100 µM (inactive) | > 100 µM (inactive) | > 100 µM (inactive) | > 100 µM (inactive) | > 100 µM (inactive) | > 10 µM (inactive) | > 100 µM (inactive) | > 100 µM (inactive) |  | > 100 µM (inactive) | > 100 µM (inactive) | 94.6 µM (inactive) | > 100 µM (inactive) | > 100 µM (inactive) | > 100 µM (inactive) | > 100 µM (inactive) | > 100 µM (inactive)
13 | CSc1ccc(/C=C2\N=C(c3ccccc3)N(c3nc4ccc(Sc5ccccc5)cc4[nH]3)C2=O)cc1 | 16.6 µM (inactive) | 17.4 µM (inactive) | 15.1 µM (inactive) | 17.5 µM (inactive) | 18.9 µM (inactive) | 14.7 µM (inactive) | 22.3 µM (inactive) | 24.9 µM (inactive) | 18.3 µM (inactive) | 16.9 µM (inactive) | 21.8 µM (inactive) | 2.01 µM (inactive) | 5.28 µM (inactive) | 14.2 µM (inactive) | 13.9 µM (inactive) | 14.3 µM (inactive) | 17.6 µM (inactive) | 28.2 µM (inactive) | 17.9 µM (inactive) | 18.1 µM (inactive)
14 | C[N+](C)(CCCn1ccnc1[N+](=O)[O-])CCCn1ccnc1[N+](=O)[O-] | > 100 µM (inactive) | > 100 µM (inactive) | > 100 µM (inactive) | > 100 µM (inactive) | > 100 µM (inactive) | > 100 µM (inactive) | > 100 µM (inactive) |  | > 100 µM (inactive) | > 100 µM (inactive) | > 100 µM (inactive) | > 100 µM (inactive) | > 100 µM (inactive) | > 100 µM (inactive) | > 100 µM (inactive) | > 100 µM (inactive) | > 100 µM (inactive) | > 100 µM (inactive) | > 100 µM (inactive) | > 100 µM (inactive)
